Source: patent publication EP1464649A2, “Sugar derivatives comprising oxiranes or alpha,beta-unsaturated gamma-lactones, process for their preparation and their utilisation as pesticides” (Instituto Politécnico de Santarém / Escola Superior Agraria, priority 2003, dated 2004)
In brackets after ≈: the same amount, converted by molar mass. Entries after “also recorded” stand apart in the source; their conditions may differ.

Columns and labels:
[1] = system: brine shrimp A. salina larvae; assay: in vivo; type: in vivo; conditions: Method F, 24 hour mortalities
Procedure: (§1) Freshly hatched brine shrimps were prepared by adding aquarium brine shrimp eggs to salt water (15 g sea salt per litre water). The following day hatchlings were separated from eggs and empty egg cases, using their phototropic movement and a Pasteur pipette.
(§2) Into each of a set of small glass vials was pipetted 195 µL of brine containing 5 shrimp larvae, using a micropipette. The solution of the test compound in 5 µL acetone was added, the vial closed and kept at 30±1°C for observation.
(§3) Dead and alive shrimps were counted, at 1 and 24 hours after treatment, using a microscope. Six concentrations and a control were used with 10 shrimps treated.
(§4) A blank test was performed for comparison of the results.
(§5) Dosages used in insect treatments were based upon the amount of compound applied to each insect. For the shrimps the final concentrations of the compounds in the immersion brine were used.
(§6) The 24 hour mortalities were used to calculate the LD50/LC50 using regression analysis of the probability percent mortality (probit) against log dose/concentration.^30 This was calculated using PoloPC software (LeOra Software, Berkeley, CA, 1994).

[2] = system: adult fruit fly (D. melanogaster); assay: Method A: topical treatment of adult fruit fly; type: in vivo, Drosophila melanogaster; conditions: for LD50: Method A, topical, adult fruit flies, 24 hour mortalities; for activity against adult fruit flies: statement in words from LD50 values
Procedure: A culture of fruit flies (D. melanogaster) was used in the production of adult flies (approx 0.22 mg) of about seven days.
Serial dilutions of the compounds were prepared in acetone, and volumes of approximately 0.2 µL were applied to the ventral surface of each insect, using a calibrated PAX 100 microapplicator and a 1 mL syringe.
The fruit flies, in groups of 5, were anaesthetised using carbon dioxide. Prior to recovery the flies were placed in a containing vial and kept at 30±1°C, for observations of mortality at 1, 2, 3 and 24 hours after treatment.
For this purpose solutions of 6 different concentrations and a control were employed in groups of 12 and 20 insects. Control mortalities were normally zero but occasionally rose to 5-10%.
as §5, §6

[3] = system: adult fruit flies; assay: Method B: second method for topical treatment of adult fruit flies; type: in vivo, Drosophila melanogaster; conditions: topical 1 µL acetone solution
Procedure: Different dilutions of the compounds in acetone were prepared and applied to individual fruit flies using a Gilson piston micropipette.
Individual flies were held in padded forceps and 1 µL of acetone solution was applied. The acetone was allowed to evaporate before placing the fly into the vial for observation, kept at 30±1°C, following the standard methodology.
as §6

[4] = system: glasshouse white fly (T. vaporariorum); assay: Method G: foliar treatment of glasshouse white fly; type: in vivo; conditions: for efficacy against white fly: statement in words
Procedure: Seedlings of tomato plants were infested with adult white fly. Selected leaves of the tomato plants were excised and carefully trimmed to 3 leaflets without disturbing the infestation. These were placed in glass tubes containing water and the leaflets were then sprayed on both sides with a small sprayer delivering for each one 200 µL of a solution of the test compound dissolved in 30% acetone in water.
Controls were sprayed with the solvent alone.
Counts of insects on the individual leaflets were made immediately after spraying and then at 14 hours following.
Where single dose treatments were used (in the case of whitefly assays), no statistics are available and the results are expressed as percent effect.
Five compounds were tested, which were applied spraying 600 µL of each compound solution (prepared according to method G) on the leaves of tomato plants infested with a known number of adult whitefly. After 14 hours, the number of dead insects (or eventually of insects that disappeared) was counted. These assays were performed at room temperature, between 20 and 25°C.

[5] = system: fruit fly larvae; assay: Method D: topical treatment of fruit fly larvae; type: in vivo, Drosophila melanogaster; conditions: for LD50: Method D, topical, fruit fly larvae; for toxicity for fruit fly larvae compared with adult flies: statement in words
Procedure: Fruit fly larvae were separated from the growing medium and second and third instars were topically treated with 0.2 µL acetone solutions of the compounds using a PAX microapplicator.
Larvae were held in padded forceps for dosing and then placed on moistened filter paper, at 30±1°C, for observation.
as §6

[6] = system: house fly adults (M. domestica); assay: Method E: topical treatment of house fly adults; type: in vivo, Musca domestica; conditions: adult house flies
Procedure: A culture of an insecticide-susceptible strain, Cooper, was established. Three-day-old adult house flies (body weight about 1.8 mg) were anaesthetised with carbon dioxide. Using the PAX microapplicator, a volume of 1 µL of acetone solution of the test compounds was applied to the dorsal cuticle, holding the fly in padded forceps.
Groups of flies were placed into closed vials, kept at 30 ±1°C, for observation.
as §6

[7] = in vivo; type: in vivo; conditions: in vivo; Method F, brine shrimp larvae, 24 hour mortalities
Procedure: as §1, §2, §3, §4, §5, §6

Compound	LC50 [1]	LD50 [2]	activity against adult fruit flies [2]	further results
CC1=C[C@H]([C@H]2O[C@@H]3OC(C)(C)O[C@@H]3[C@H]2OCc2ccccc2)OC1=O [Compound 1, 3-O-benzyl-6,7-dideoxy-1,2-O-isopropylidene-7-methyl-α-D-gluco-oct-6-enefuranurono-8,5-lactone]	100.62 µg/mL (≈ 290 µM)	0.00002 µg/insect	extremely active	
CC1=C[C@H]([C@H]2O[C@@H]3OC(C)(C)O[C@@H]3[C@@H]2OCc2ccccc2)OC1=O [Compound 2, 3-O-benzyl-6,7-dideoxy-1,2-O-isopropylidene-7-methyl-α-D-alo-oct-6-enefuranurono-8,5-lactone]	64.30 µg/mL (≈ 186 µM)		extremely active	LD50 [3]: 0.00398 µg/insect
CC1(C)O[C@H]2O[C@H]([C@H]3C=CC(=O)O3)[C@@H](OCc3ccccc3)[C@H]2O1 [Compound 3, 3-O-benzyl-6,7-dideoxy-1,2-O-isopropylidene-α-D-alo-oct-6-enefuranurono-8,5-lactone]	144.71 µg/mL (≈ 435 µM)	5.02x10^-6 µg/insect	extremely active	% Control of White Fly ([4]; foliar, 14 h, 1.3 ug/mL): 0%
CC1(C)O[C@H]2O[C@H]([C@H]3C=CC(=O)O3)[C@H](OCc3ccccc3)[C@H]2O1 [Compound 4, 3-O-benzyl-6,7-dideoxy-1,2-O-isopropylidene-α-D-gluco-oct-6-enefuranurono-8,5-lactone]	358.92 µg/mL (≈ 1080 µM)	0.00012 µg/insect		% Control of White Fly ([4]; foliar, 14 h, 2.5 ug/mL): 50%; efficacy against white fly [4]: show efficacy as insecticides; also recorded: promising for activity against the white fly
CC(=O)OC[C@H]1OC(=O)C(Br)=C[C@@H]1OC(C)=O [Compound 5, 4,6-di-O-acetyl-2-bromo-2,3-dideoxy-D-erythro-hex-2-enone-1,5-lactone]	38.36 µg/mL (≈ 125 µM)	0.00016 µg/insect		LD50 [5]: 4.75 µg/insect; toxicity for fruit fly larvae compared with adult flies [5]: less toxic for larvae than for adult flies; LD50 [6]: 1.065 µg/insect
COC1OC(C2CC(C)([Se]c3ccccc3)C(=O)O2)C2OC12 [Compound 6, methyl (7R)-/(7S)-2,3-anhydro-6,7-dideoxy-7-methyl-7-phenylselenyl-β-L-gulo-octofuranurono-8,5-lactone]	125.48 µg/mL (≈ 340 µM)	0.00015 µg/insect		% Control of White Fly ([4]; Concentration 1.3 µg/mL, sprayed tomato leaves, 14 hours): 0%
CC1(C)OC2OC(C3CC(C)([Se]c4ccccc4)C(=O)O3)C(OCc3ccccc3)C2O1 [Compound 8, (7R)-/(7S)-3-O-Benzyl-6,7-dideoxy-1,2-O-isopropylidene-7-methyl-7-phenylselenyl-α-D-gluco-octofuranurono-8,5-lactone]	220.41 µg/mL (≈ 438 µM)	0.00037 µg/insect		toxicity for fruit fly larvae compared with adult flies [5]: less toxic for larvae than for adult flies; LD50 [6]: 0.644 µg/insect
O=[N+]([O-])NC1=NCCN1Cc1ccc(Cl)nc1 [Imidacloprid, reference compound]		0.01253 µg/insect		LC50 at 24 h [7]: 0.0312 µg/mL (≈ 0.122 µM)
(7R)-/(7S)-3,6,7-Trideoxy-1,2-O-isopropylidene-7-methyl-7-phenylselenyl-α-D-ribo-octofuranurono-8,5-lactone [Compound 7]	261.04 µg/mL	0.0002 µg/insect		LD50 [5]: 0.968 µg/insect; % Control of White Fly ([4]; Concentration 4.8 µg/mL, sprayed tomato leaves, 14 hours): 0%
Methyl 2,3;5,6-Dianhydro-β-L-gulofuranoside [Compound 9]	671.50 µg/mL	0.00003 µg/insect	extremely active	% Control of White Fly ([4]; Concentration 2.5 µg/mL, sprayed tomato leaves, 14 hours): 85%; efficacy against white fly [4]: show efficacy as insecticides; also recorded: promising for activity against the white fly
